Measurements published in patent US4687762A, “Water soluble drug complex and method for production of same” (Green Cross Corporation, priority 1984, dated 1987).
Converted amounts (≈) assume the structure as drawn. Where two headings read alike, the source gives them in different places.

Assays:
[1] = Acute toxicity (LD50) in mice; conditions: mouse, in vivo, drug
From the text: The intravenous and oral acute toxicity values (LD50) in mice of each drug-phospholipid complex of this invention were compared with those of the corresponding component drug.

[2] = Solubility in distilled water for injection; assay type: physicochemical; conditions: for solubility: component drug, distilled water for injection, 20° C.
[3] = Blood pressure lowering effect in dogs (Test 2); assay type: in vivo, dog (male mongrel dogs); conditions: intravenous
Procedure: (§1) The pharmacologic effect of the drug-phospholipid complex according to this invention administered by the intravenous route was compared with that of the component drug administered in the same manner using 10 aminals. Test (1): Antitumor Effect
Test (2): Blood Pressure Lowering Effect
Ten normal male mongrel dogs were intravenously administered with prostaglandin E1 and the blood pressure of each animal was measured using a catheter inserted into the carotid artery of the animal.
The blood pressure lowing ratio was calculated according to the following equation. [formula] wherein P1 represents the blood pressure after the administration and P2 represents that before the administration.

[4] = parameters: species or system rat (male Wistar); conditions: rat, in vivo, iv, 1440 min
From the text: (§2) The organ affinity of the drug-phospholipid complex according to this invention was compared with that of the component drug. […] Twenty-four hours after the administration, the degree of retention of the drug in each organ was estimated by determining the radio-activity level.

[5] = Oral route absorption in rats; parameters: species or system rat (male Wistar); conditions: rat, in vivo
From the text: as §2, with “oral route absorption” for “organ affinity”, “invention administered” for “invention”, “drug similarly administered.” for “drug.”

[6] = tested on: L-1210 mouse ascites tumor cells; experiment: Antitumor effect, life prolongation in L-1210 inoculated mice (Test 1); assay type: in vivo; conditions: intravenous, 5 days, BDF1 mice
Procedure: as §1
Ten male BDF1 mice ([…]) were inoculated with 10^6 cells of L-1210 mouse ascites tumor cells. After 24 hours from the inoculation Sapdicomycin as a drug was administered to the animals for continuous 5 days, and the number of days in which the test animals were dead. The life prolongation ratio was calculated according to the following equation. [formula] wherein A1 represents an average survival period (day) of control group (without administration) and A2 represents that of administered group.

[7] = intravenous, read-out: Acute Toxicity (LD50), Intravenous Administration, Drug
[8] = oral, read-out: Acute Toxicity (LD50), Oral Administration, Drug

Work on O=c1[nH]cc(F)c(=O)[nH]1 [5-Fluorouracil] yielded an LD50 [1, 7] of 173 mg/kg, an LD50 [1, 8] of 249 mg/kg and a solubility [2] of 13000 µg/mL (≈ 99900 µM).

For COc1ccc2c(c1)c(CC(=O)OCC(=O)O)c(C)n2C(=O)c1ccc(Cl)cc1 [Acemetacin, acemetacin], the solubility [2] was 400 µg/mL (≈ 962 µM).

In the case of COc1cccc2c1C(=O)c1c(O)c3c(c(O)c1C2=O)C[C@@](O)(C(=O)CO)C[C@@H]3O[C@H]1C[C@H](N)[C@H](O)[C@H](C)O1 [Adriamycin, adriamycin], the LD50 [1, 7] is reported as 9.1 mg/kg, the LD50 [1, 8] is reported as 737 mg/kg and the solubility [2] is reported as 7000 µg/mL (≈ 12900 µM).

In the case of COc1cccc2c1C(=O)c1c(O)c3c(c(O)c1C2=O)C[C@@](O)(C(C)=O)C[C@@H]3O[C@H]1C[C@H](N)[C@H](O)[C@H](C)O1 [Daunomycin, daunomycin], the LD50 [1, 7] is reported as 23.5 mg/kg, the LD50 [1, 8] is reported as 271 mg/kg and the solubility [2] is reported as 20000 µg/mL (≈ 37900 µM).

For C[C@@H]1C[C@H]2[C@@H]3CCC4=CC(=O)C=C[C@]4(C)[C@@]3(F)[C@@H](O)C[C@]2(C)[C@@]1(O)C(=O)CO [Dexamethasone, dexamethasone], the solubility [2] was 50 µg/mL (≈ 127 µM).

For CC(C(=O)O)c1ccc(-c2ccccc2)c(F)c1 (centres unmarked) [Flurbiprofen, flurbiprofen], the solubility [2] was 150 µg/mL (≈ 614 µM).

In the case of CCCCC[C@H](O)/C=C/[C@H]1[C@H](O)CC(=O)[C@@H]1CCCCCCC(=O)O [Prostaglandin E1, prostaglandin E1], the “Blood pressure lowering ratio, Drug” value ([3]; 0.25 mg/kg) is reported as 4.8%, the “Blood pressure lowering ratio, Drug” value ([3]; 0.5 mg/kg) is reported as 7.7% and the “Blood pressure lowering ratio, Drug” value ([3]; 1.0 mg/kg) is reported as 10.5%. It also gave an LD50 [1, 8] of 7570 mg/kg and a solubility [2] of 70 µg/mL (≈ 197 µM).

For spadicomycin, the “Retention in kidney, Drug” value [4] was 129 dpm per Gram Organ Weight, the “Retention in liver, Drug” value [4] was 585 dpm per Gram Organ Weight and the “Retention in tumor, Drug” value [4] was 3800 dpm per Gram Organ Weight. For the same molecule, the “Retention in whole blood, Drug” value [4] was 825 dpm per Gram Organ Weight, the “Absorption Rate, Drug” value [5] was 2.0% and the “Antitumor effect (life prolongation ratio), Drug” value ([6]; 2.5 mg/kg) was 19%. For the same molecule, the “Antitumor effect (life prolongation ratio), Drug” value ([6]; 5.0 mg/kg) was 25%, the “Antitumor effect (life prolongation ratio), Drug” value ([6]; 10.0 mg/kg) was 50% and the “Solubility, Component Drug” value ([2]; water) was 55000 µg/mL.
